Test results reported in the NIST ThermoML archive (doi:10.1021/acs.jced.8b00488).
Numbers after ± are expanded uncertainties.

Details: Liquid, Ebulliometric method (Recirculating still)

For `CC(C)=O` [acetone], the “vapor or sublimation pressure” value (329.33 K) was 101.3 ± 0.8 kPa.

For `C[Si](C)(C)O[Si](C)(C)C` [hexamethyldisiloxane], the “vapor or sublimation pressure” value (374.12 K) was 101.3 ± 0.8 kPa.
